From US7550480B2, “Compounds” (SmithKline Beecham Corporation, priority 2003, dated 2009)
Values joined by “and” are separate entries in the source; they are usually repeats but may differ in a detail not shown here. Equal values may be shown once.

Experiments:
CSBP/p38 [1] = target: T1, CSBP/p38 (Homo sapiens, UniProt Q16539); assay: CSBP/p38 Kinase Assay (32P transfer to EGFR-derived T669 peptide); assay type: biochemical; parameters: made in house; host or cells: yeast; conditions: for IC50: 0.17 mM ATP, 0.67 mM T669 peptide, 2-4 nM yeast-expressed activated p38, 25 min at 37° C.; for active as inhibitors of the CSBP kinase: statement in words, assay not given
T1 sequence (Q16539 whole entry, the tested form may be a part): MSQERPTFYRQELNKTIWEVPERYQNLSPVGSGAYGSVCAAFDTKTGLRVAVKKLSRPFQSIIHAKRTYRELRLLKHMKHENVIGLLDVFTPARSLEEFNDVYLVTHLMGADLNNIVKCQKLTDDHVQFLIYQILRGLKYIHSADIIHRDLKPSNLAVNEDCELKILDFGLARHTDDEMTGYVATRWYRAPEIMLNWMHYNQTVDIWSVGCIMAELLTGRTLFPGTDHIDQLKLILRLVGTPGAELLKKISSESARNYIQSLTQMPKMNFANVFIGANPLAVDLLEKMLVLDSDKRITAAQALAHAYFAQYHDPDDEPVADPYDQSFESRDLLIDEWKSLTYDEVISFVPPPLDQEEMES
Protocol: This assay measures the CSBP/p38-catalyzed transfer of ^32P from [a-^32P]ATP to threonine residue in an epidermal growth factor receptor (EGFR)-derived peptide (T669) with the following sequence: […] (SEQ ID 1) (residues 661-681). (See Gallagher et al., “Regulation of Stress Induced Cytokine Production by Pyridinyl Imidazoles: Inhibition of CSBP Kinase”, BioOrganic & Medicinal Chemistry, 1997, 5, 49-64).
Reactions are carried in round bottom 96 well plate (from Corning) in a […] volume. […] Filters are washed with 75 mM phosphoric acids, and incorporated 32P was quantified using beta scintillation counter. Under these conditions, the specific activity of p38 will be determined and is generally 400-450 pmol/pmol enzyme, and the activity being linear for up to 2 hours of incubation. The kinase activity values are obtained after subtracting values generated in the absence of substrate which were 10-15% of total values.

CSBP/p38 [2] = target: T1, CSBP/p38; assay: Fluorescence Anisotropy Kinase Binding Assay; conditions: pKi is the negative log of the Ki; p38 enzyme 12 nM, fluorescent ligand 5 nM
Protocol: The concentration of kinase enzyme should preferably be ≧1×Kf. The concentration of fluorescent ligand required will depend on the instrumentation used, and the fluorescent and physicochemical properties. The concentration used must be lower than the concentration of kinase enzyme, and preferably less than half the kinase enzyme concentration.
All components dissolved in Buffer of final composition 62.5 mM HEPES, pH 7.5, 1.25 mM CHAPS, 1.25 mM […], 12.5 mM MgCl2 3.3% DMSO.
p38 Enzyme concentration: 12 nM
Fluorescent ligand concentration: 5 nM
Test compound concentration: 0.1 nM-100 uM
Components incubated in 30 ul final volume in NUNC 384 well black microtitre plate until equilibrium reached (5-30 mins)
Fluorescence anisotropy read in LJL Acquest.
Definitions: Ki=dissociation constant for inhibitor binding
• Kf=dissociation constant for fluorescent ligand binding The fluorescent ligand is the following compound:
[drawing 13] which is derived from 5-[2-(4-aminomethylphenyl)-5-pyridin-4-yl-1H-imidazol-4-yl]-2-chlorophenol and rhodamine green.

| Compound | IC50 (CSBP/p38 [1]) [nM] | active as inhibitors of the CSBP kinase (CSBP/p38 [1]) | Ki (CSBP/p38 [2]) |
| --- | --- | --- | --- |
| Cn1c(=O)ccc2c(-c3ccccc3)nccc21 [Example 11, 1-Methyl-5-phenyl-1H-[1,6]naphthyridin-2-one] | 5000 | active | – |
| O=c1ccc2c(-c3ccccc3)nccc2[nH]1 [Example 12, 5-Phenyl-1H-[1,6]naphthyridin-2-one] | 13400 | active | – |
| COc1cc2c(ccc(=O)n2-c2ccccc2Cl)c(-c2ccccc2Cl)c1Br (single isomer, unassigned) [Example 17, 6-bromo-1,5-bis(2-chlorophenyl)-7-(methyloxy)-2(1H)-quinolinone] | – | – | 20 nM and 12.6 nM |

Other lines, results leading:

| IC50 (CSBP/p38 [1]) [nM] | active as inhibitors of the CSBP kinase (CSBP/p38 [1]) | Ki (CSBP/p38 [2]) | Compound |
| --- | --- | --- | --- |
| 200 | – | – | O=c1ccc2c(-c3ccccc3)nccc2n1-c1ccccc1 [Example 10, 1,5-Diphenyl-1H-[1,6]naphthyridin-2-one] |
| 60 | – | – | O=c1ccc2c(-c3ccccc3)nccc2n1Cc1ccccc1 [Example 9, 1-Benzyl-5-phenyl-1H-[1,6]naphthyridin-2-one] |
